What was measured:
[1] = target: Tyrosine-protein kinase ABL1 (Homo sapiens) (UniProt P00519); test: Inhibition of recombinant human His-tagged ABL1 cytoplasmic domain expressed in baculovirus expression system at 10 uM by Z'-LYTE assay relative to control
[2] = target: Casein kinase I isoform gamma-2 (Homo sapiens) (UniProt P78368); test: Inhibition of full length recombinant human His-tagged CK1gamma2 expressed in baculovirus expression system at 10 uM by Z'-LYTE assay relative to control
[3] = target: Ephrin type-A receptor 2 (Homo sapiens) (UniProt P29317); test: Inhibition of recombinant human GST-tagged EPHA2 cytoplasmic domain (560 to 976 residues) expressed in baculovirus expression system at 10 uM by Z'-LYTE assay relative to control
[4] = target: Receptor tyrosine-protein kinase erbB-2 (Homo sapiens) (UniProt P04626); test: Inhibition of recombinant human His-tagged HER2 cytoplasmic domain (676 to 1255 residues) expressed in baculovirus expression system at 10 uM by Z'-LYTE assay relative to control
[5] = target: Fibroblast growth factor receptor 1 (Homo sapiens) (UniProt P11362); test: Inhibition of recombinant human His-tagged FGFR1 cytoplasmic domain (308 to 731 residues) expressed in baculovirus expression system at 10 uM by Z'-LYTE assay relative to control
[6] = target: Insulin-like growth factor 1 receptor (Homo sapiens) (UniProt P08069); test: Inhibition of recombinant human C-terminal His-tagged IGF1R cytoplasmic domain (960 to 1397 residues) expressed in baculovirus expression system at 10 uM by Z'-LYTE assay relative to control
[7] = target: Interleukin-1 receptor-associated kinase 4 (Homo sapiens) (UniProt Q9NWZ3); test: Inhibition of full length recombinant human His-tagged IRAK4 expressed in baculovirus expression system at 10 uM by Z'-LYTE assay relative to control
[8] = target: Mast/stem cell growth factor receptor Kit (Homo sapiens) (UniProt P10721); test: Inhibition of KIT (unknown origin) at 10 uM by Z'-LYTE assay relative to control
[9] = target: Hepatocyte growth factor receptor (Homo sapiens) (UniProt P08581); test: Inhibition of recombinant human His-tagged MET cytoplasmic domain (956 to 1390 residues) expressed in baculovirus expression system at 10 uM by Z'-LYTE assay relative to control
[10] = target: Dual specificity mitogen-activated protein kinase kinase 1 (Homo sapiens) (UniProt Q02750); test: Inhibition of full length recombinant human His-tagged MEK1 expressed in baculovirus expression system at 10 uM by Z'-LYTE assay relative to control
[11] = target: Mitogen-activated protein kinase 14 (Homo sapiens, UniProt Q16539); test: Inhibition of full length recombinant human GST-tagged p38alpha expressed in Escherichia coli at 10 uM by Z'-LYTE assay relative to control
[12] = target: MAP kinase-activated protein kinase 2 (Homo sapiens) (UniProt P49137); test: Inhibition of full length recombinant human His-tagged MAPKAPK2 expressed in Escherichia coli at 10 uM by Z'-LYTE assay relative to control
[13] = target: Aurora kinase A (Homo sapiens) (UniProt O14965); test: Inhibition of full length recombinant human His-tagged Aurora A expressed in baculovirus expression system at 10 uM by Z'-LYTE assay relative to control
Sequence of Aurora kinase A (Homo sapiens) (O14965 whole entry): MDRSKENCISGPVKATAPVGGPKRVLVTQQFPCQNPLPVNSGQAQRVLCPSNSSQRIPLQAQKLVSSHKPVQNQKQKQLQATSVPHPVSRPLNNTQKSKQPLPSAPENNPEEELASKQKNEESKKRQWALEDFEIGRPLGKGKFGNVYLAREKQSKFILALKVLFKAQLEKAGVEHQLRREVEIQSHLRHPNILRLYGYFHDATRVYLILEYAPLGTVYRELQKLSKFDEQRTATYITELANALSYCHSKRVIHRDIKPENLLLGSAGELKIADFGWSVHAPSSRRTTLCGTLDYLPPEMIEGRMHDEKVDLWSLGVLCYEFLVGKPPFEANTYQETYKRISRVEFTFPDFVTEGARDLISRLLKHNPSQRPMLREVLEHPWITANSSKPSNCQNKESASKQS

Sequence of Ephrin type-A receptor 2 (Homo sapiens) (P29317 whole entry, the tested form may be a part): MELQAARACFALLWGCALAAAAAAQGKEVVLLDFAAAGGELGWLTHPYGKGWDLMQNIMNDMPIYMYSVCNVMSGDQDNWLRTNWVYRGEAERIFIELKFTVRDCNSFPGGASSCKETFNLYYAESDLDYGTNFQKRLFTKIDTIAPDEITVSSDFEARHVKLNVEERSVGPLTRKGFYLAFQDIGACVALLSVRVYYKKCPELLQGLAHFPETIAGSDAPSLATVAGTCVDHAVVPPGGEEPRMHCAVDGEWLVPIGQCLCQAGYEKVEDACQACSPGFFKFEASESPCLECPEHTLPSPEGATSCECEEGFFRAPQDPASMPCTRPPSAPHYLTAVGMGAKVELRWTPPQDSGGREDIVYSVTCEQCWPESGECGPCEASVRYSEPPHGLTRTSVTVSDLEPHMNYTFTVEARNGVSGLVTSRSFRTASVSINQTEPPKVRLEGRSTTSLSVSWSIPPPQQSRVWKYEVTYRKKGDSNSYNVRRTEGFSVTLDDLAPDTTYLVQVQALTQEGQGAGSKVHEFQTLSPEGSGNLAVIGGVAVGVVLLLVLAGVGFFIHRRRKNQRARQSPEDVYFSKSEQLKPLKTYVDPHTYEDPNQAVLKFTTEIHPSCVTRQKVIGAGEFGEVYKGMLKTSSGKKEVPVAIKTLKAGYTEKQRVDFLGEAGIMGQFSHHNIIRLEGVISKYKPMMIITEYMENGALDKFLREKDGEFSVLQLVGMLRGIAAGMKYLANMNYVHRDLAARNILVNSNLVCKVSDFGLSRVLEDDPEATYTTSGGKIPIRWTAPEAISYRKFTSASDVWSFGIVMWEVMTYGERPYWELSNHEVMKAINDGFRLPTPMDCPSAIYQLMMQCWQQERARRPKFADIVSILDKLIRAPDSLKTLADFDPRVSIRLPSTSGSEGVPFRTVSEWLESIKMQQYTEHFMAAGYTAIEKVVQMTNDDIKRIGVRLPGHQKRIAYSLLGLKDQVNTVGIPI
Sequence of Tyrosine-protein kinase ABL1 (Homo sapiens) (P00519 whole entry, the tested form may be a part, canonical isoform): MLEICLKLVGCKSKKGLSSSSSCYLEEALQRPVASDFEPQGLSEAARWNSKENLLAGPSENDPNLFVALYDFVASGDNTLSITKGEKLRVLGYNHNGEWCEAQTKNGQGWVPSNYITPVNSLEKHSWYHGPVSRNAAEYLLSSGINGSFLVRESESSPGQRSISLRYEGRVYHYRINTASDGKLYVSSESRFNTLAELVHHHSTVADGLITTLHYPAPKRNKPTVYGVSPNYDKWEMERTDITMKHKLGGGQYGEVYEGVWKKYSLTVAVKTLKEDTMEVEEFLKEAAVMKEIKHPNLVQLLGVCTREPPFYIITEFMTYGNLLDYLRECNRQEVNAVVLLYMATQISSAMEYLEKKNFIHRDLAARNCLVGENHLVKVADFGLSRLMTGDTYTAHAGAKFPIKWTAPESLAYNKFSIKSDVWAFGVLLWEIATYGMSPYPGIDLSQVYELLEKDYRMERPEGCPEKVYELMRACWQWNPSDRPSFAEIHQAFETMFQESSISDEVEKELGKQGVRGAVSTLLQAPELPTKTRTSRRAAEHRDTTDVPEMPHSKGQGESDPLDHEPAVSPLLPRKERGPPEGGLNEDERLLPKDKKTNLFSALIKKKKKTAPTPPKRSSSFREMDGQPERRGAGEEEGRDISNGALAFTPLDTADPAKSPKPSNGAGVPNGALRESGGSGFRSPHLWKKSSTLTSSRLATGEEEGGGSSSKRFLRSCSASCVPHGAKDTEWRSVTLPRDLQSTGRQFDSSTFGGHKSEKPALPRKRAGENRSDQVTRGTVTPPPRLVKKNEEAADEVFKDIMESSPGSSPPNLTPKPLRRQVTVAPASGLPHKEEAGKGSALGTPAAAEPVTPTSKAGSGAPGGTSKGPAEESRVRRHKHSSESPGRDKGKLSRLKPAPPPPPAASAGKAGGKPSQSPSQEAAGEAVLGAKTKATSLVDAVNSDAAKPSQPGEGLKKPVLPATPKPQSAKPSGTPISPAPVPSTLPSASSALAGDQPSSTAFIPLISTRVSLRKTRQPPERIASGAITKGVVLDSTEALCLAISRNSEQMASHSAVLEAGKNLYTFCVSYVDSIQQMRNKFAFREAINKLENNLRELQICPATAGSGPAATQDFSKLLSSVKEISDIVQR
Sequence of Receptor tyrosine-protein kinase erbB-2 (Homo sapiens) (P04626 whole entry, the tested form may be a part): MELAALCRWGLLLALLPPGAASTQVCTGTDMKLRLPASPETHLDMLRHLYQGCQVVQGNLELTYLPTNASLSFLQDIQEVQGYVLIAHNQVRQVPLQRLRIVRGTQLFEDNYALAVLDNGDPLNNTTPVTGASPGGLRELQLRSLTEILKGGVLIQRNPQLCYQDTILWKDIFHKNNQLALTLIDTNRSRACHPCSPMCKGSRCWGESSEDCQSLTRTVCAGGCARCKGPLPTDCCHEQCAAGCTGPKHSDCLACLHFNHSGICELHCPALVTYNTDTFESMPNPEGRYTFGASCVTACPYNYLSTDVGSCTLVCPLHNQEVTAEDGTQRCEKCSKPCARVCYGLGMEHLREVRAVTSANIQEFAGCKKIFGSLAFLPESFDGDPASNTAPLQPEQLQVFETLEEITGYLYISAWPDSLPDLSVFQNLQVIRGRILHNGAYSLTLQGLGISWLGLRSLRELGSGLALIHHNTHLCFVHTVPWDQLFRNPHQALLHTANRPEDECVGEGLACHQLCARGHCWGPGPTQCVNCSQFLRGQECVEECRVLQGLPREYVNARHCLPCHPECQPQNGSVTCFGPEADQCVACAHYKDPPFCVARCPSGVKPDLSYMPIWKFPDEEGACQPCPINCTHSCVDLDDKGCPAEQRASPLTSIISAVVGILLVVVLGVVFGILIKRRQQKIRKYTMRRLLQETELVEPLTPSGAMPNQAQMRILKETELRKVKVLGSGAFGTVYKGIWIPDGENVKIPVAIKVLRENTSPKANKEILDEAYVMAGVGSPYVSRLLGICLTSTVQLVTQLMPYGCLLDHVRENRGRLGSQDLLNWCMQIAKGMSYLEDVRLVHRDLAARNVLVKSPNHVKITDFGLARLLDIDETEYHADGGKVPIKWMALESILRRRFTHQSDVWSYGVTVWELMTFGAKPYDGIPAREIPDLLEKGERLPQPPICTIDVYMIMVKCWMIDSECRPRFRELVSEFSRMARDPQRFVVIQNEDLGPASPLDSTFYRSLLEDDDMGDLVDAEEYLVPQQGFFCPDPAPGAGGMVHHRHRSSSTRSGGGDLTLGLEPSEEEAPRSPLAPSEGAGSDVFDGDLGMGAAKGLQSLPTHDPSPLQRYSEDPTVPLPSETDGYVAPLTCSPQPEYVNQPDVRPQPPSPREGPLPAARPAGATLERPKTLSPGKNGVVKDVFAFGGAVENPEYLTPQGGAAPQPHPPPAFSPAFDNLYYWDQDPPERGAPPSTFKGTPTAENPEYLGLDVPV
Sequence of Mitogen-activated protein kinase 14 (Q16539 whole entry): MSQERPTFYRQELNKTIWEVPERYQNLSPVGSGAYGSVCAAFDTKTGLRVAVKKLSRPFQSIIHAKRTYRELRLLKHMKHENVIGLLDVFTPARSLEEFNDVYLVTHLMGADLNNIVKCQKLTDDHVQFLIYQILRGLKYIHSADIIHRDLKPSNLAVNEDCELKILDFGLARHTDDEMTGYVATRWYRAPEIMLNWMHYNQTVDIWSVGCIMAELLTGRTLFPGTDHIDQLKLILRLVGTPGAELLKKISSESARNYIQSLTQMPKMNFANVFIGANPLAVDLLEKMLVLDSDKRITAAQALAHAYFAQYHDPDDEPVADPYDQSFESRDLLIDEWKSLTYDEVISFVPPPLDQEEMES
Sequence of Casein kinase I isoform gamma-2 (Homo sapiens) (P78368 whole entry, looked up, the tested form may be a part, canonical isoform): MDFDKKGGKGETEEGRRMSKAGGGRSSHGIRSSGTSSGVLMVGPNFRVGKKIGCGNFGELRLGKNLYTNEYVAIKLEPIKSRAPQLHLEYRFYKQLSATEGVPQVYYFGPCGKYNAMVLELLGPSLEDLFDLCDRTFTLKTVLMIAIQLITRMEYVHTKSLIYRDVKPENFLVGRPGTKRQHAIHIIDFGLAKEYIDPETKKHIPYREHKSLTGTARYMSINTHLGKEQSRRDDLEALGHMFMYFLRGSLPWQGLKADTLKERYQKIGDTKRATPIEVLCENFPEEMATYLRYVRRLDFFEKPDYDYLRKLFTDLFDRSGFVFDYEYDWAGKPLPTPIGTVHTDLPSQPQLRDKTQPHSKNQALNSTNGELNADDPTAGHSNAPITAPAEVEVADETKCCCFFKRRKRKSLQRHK
Sequence of Interleukin-1 receptor-associated kinase 4 (Homo sapiens) (Q9NWZ3 whole entry): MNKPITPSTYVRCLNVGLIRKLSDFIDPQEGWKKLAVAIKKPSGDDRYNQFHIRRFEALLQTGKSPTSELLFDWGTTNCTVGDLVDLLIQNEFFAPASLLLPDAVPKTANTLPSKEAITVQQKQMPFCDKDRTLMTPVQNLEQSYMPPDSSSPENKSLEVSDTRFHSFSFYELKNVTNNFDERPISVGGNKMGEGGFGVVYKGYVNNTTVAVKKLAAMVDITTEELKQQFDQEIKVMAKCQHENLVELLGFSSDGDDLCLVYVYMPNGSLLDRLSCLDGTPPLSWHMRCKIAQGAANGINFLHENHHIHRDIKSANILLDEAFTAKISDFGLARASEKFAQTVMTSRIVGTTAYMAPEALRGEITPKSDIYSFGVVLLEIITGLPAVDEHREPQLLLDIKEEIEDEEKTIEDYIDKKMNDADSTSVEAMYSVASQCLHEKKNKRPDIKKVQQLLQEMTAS

inhibition [1]: 12% | inhibition [2]: 6% | inhibition [3]: 9% | inhibition [4]: -4% | inhibition [5]: -4% | inhibition [6]: 2% | inhibition [7]: 3% | inhibition [8]: 3% | inhibition [9]: 14% | inhibition [10]: 2% | inhibition [11]: 74% | inhibition [12]: 8% | inhibition [13]: 6%
Compound: CC1=Nc2c(Sc3ccccc3)ncnc2Sc2ccccc21
